Reference: PubChem BioAssay (NCI)
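Cultured in 96-well plates, cells were exposed to test compound for 48 hours across five concentrations. The concentration for 50% growth inhibition is given as GI50. TGI is the concentration that stops growth completely.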

Experiments:
Assay in all cases: NCI-60 cell line screen, 48 h
[1] = test system: MALME-3M melanoma
[2] = test system: HL-60(TB) leukemia
[3] = test system: KM12 colon
[4] = test system: SK-MEL-2 melanoma
[5] = test system: MCF7 breast
[6] = test system: SNB-19 CNS
[7] = test system: NCI-H23 lung
[8] = test system: NCI-H460 lung
[9] = test system: SK-MEL-28 melanoma
[10] = test system: A498 renal
[11] = test system: SF-295 CNS
[12] = test system: TK-10 renal
[13] = test system: NCI/ADR-RES ovarian
[14] = test system: SF-268 CNS
[15] = test system: UACC-62 melanoma
[16] = test system: ACHN renal
[17] = test system: HS 578T breast
[18] = test system: 786-0 renal
[19] = test system: RPMI-8226 leukemia
[20] = test system: CCRF-CEM leukemia
[21] = test system: EKVX NSCLC
[22] = test system: IGROV1 ovarian
[23] = test system: HCT-116 colon
[24] = test system: MDA-MB-435
[25] = test system: COLO 205 colon
[26] = test system: OVCAR-5 ovarian
[27] = test system: K-562 leukemia
[28] = test system: CAKI-1 renal
[29] = test system: HOP-62 NSCLC
[30] = test system: SF-539 CNS
[31] = test system: NCI-H226 lung
[32] = test system: MOLT-4 leukemia
[33] = test system: SNB-75 CNS
[34] = test system: UACC-257 melanoma
[35] = test system: OVCAR-3 ovarian
[36] = test system: SK-MEL-5 melanoma
[37] = test system: OVCAR-8 ovarian
[38] = test system: DU-145 prostate
[39] = test system: NCI-H522 lung
[40] = test system: RXF 393 renal
[41] = test system: M14 melanoma
[42] = test system: PC-3 prostate
[43] = test system: U251 CNS
[44] = test system: HT29 colon
[45] = test system: T-47D breast
[46] = test system: HOP-92 NSCLC
[47] = test system: SN12C renal
[48] = test system: LOX IMVI melanoma
[49] = test system: MDA-MB-231 breast
[50] = test system: UO-31 renal
[51] = test system: A549 NSCLC
[52] = test system: SW-620 colon
[53] = test system: SR leukemia
[54] = test system: HCT-15 colon
[55] = test system: OVCAR-4 ovarian
[56] = test system: HCC-2998 colon
[57] = test system: BT-549 breast

Structure (SMILES): C=CC(=O)Nc1cc2c(Nc3ccc(OCc4ccccn4)c(Cl)c3)ncnc2cc1OCCN1CCOCC1
- GI50 [1]: 11.2 µM
- TGI [1]: 42.1 µM
- GI50 [2]: 2.58 µM
- TGI [2]: 22.5 µM
- GI50 [3]: 5.04 µM
- TGI [3]: > 100 µM
- GI50 [4]: 6.11 µM
- TGI [4]: 37.5 µM
- TGI [5]: > 100 µM
- GI50 [6]: 3.65 µM
- TGI [6]: > 100 µM
- GI50 [7]: 5.24 µM
- TGI [7]: 20 µM
- GI50 [8]: 4.28 µM
- TGI [8]: > 100 µM
- GI50 [9]: 5.11 µM
- TGI [9]: 19.3 µM
- GI50 [10]: 1.48 µM
- TGI [10]: 7.23 µM
- GI50 [11]: 4.87 µM
- TGI [11]: > 100 µM
- GI50 [12]: 0.0267 µM
- TGI [12]: > 100 µM
- GI50 [13]: 3.77 µM
- TGI [13]: > 100 µM
- GI50 [14]: 2.87 µM
- TGI [14]: > 65.9 µM
- GI50 [15]: 2.85 µM
- TGI [15]: 17.4 µM
- GI50 [16]: 0.201 µM
- TGI [16]: > 100 µM
- GI50 [17]: 2.01 µM
- TGI [17]: > 100 µM
- GI50 [18]: 1.7 µM
- TGI [18]: > 83.3 µM
- GI50 [19]: 2.15 µM
- TGI [19]: > 27.6 µM
- GI50 [20]: 2.98 µM
- TGI [20]: > 100 µM
- GI50 [21]: 0.775 µM
- TGI [21]: > 73.2 µM
- GI50 [22]: 0.125 µM
- TGI [22]: 4.01 µM
- GI50 [23]: 2.99 µM
- TGI [23]: 14.5 µM
- GI50 [24]: 5.94 µM
- TGI [24]: > 86.5 µM
- GI50 [25]: 6.19 µM
- TGI [25]: > 100 µM
- GI50 [26]: 15.6 µM
- TGI [26]: > 100 µM
- GI50 [27]: 2.79 µM
- TGI [27]: > 100 µM
- GI50 [28]: 1.86 µM
- TGI [28]: 19.7 µM
- GI50 [29]: 3.2 µM
- TGI [29]: > 100 µM
- GI50 [30]: 2.63 µM
- TGI [30]: > 100 µM
- GI50 [31]: 6.56 µM
- TGI [31]: > 83.6 µM
- GI50 [32]: 3.02 µM
- TGI [32]: > 85.1 µM
- GI50 [33]: 2.09 µM
- TGI [33]: > 74.3 µM
- GI50 [34]: 10.6 µM
- TGI [34]: > 100 µM
- GI50 [35]: 1.16 µM
- TGI [35]: 29.3 µM
- GI50 [36]: 3.8 µM
- TGI [36]: 14.3 µM
- GI50 [37]: 5.26 µM
- TGI [37]: > 100 µM
- GI50 [38]: 0.502 µM
- TGI [38]: > 100 µM
- GI50 [39]: 0.366 µM
- TGI [39]: 22.6 µM
- GI50 [40]: 0.784 µM
- TGI [40]: 3.8 µM
- GI50 [41]: 4.18 µM
- TGI [41]: 19.6 µM
- GI50 [42]: 4.28 µM
- TGI [42]: > 100 µM
- GI50 [43]: 4.65 µM
- TGI [43]: > 100 µM
- GI50 [44]: 4.04 µM
- TGI [44]: > 100 µM
- GI50 [45]: < 0.0181 µM
- TGI [45]: > 100 µM
- GI50 [46]: 1.02 µM
- TGI [46]: 9.06 µM
- GI50 [47]: 1.49 µM
- TGI [47]: > 100 µM
- GI50 [48]: 1.81 µM
- TGI [48]: 5.83 µM
- GI50 [49]: 2.17 µM
- TGI [49]: 34.2 µM
- GI50 [50]: 0.646 µM
- TGI [50]: > 100 µM
- GI50 [51]: 6.4 µM
- TGI [51]: > 100 µM
- GI50 [52]: 2.99 µM
- TGI [52]: 20.7 µM
- GI50 [53]: 2.62 µM
- TGI [53]: > 100 µM
- GI50 [54]: 2.49 µM
- TGI [54]: 14.9 µM
- GI50 [55]: 5.9 µM
- TGI [55]: > 100 µM
- GI50 [56]: 2.2 µM
- TGI [56]: 11.1 µM
- GI50 [57]: 8.86 µM
- TGI [57]: 37.4 µM
